From US10004809B2, “Precise delivery of therapeutic agents to cell mitochondria for anti-cancer therapy” (UNIVERSITY OF GEORGIA RESEARCH FOUNDATION, INC., priority 2013, dated 2018)

Experiments:
PC3 cells = test: Intracellular lactate determination; format: cell-based, Human; conditions: 6 h
Text: Cytosolic metabolism of glucose to pyruvate occurs before its entry into mitochondria for oxidative phosphorylation. However, if not metabolized through oxidative phosphorylation as found in cancer, pyruvate gets converted by lactate dehydrogenase through glycolysis to lactate. Glycolysis in the absence of oxidative phosphorylation in cancer causes rise in lactate concentration. To test the ability of MITO-DCA to switch glucose metabolism from glycolysis to oxidative phosphorylation in cancer cells, intracellular lactate levels in glycolytic PC3 cells were measured and compared the value with those observed in less glycolytic LNCaP and normal MSC cells (FIG. 5A). To understand the importance of mitochondria targeting ligand and to explore the importance of a Tris platform to increase number of DCA molecule per targeting ligand, the parent drug Na-DCA and TPP-DCA were used as controls. Treatment of PC3 cells with 50 μM of MITO-DCA for 6 h reduced the intracellular lactate levels by 58±5%. […] Pronounced lactate concentration differences were observed between […] glycolytic PC3 and healthy MSC cells (FIG. 5A). […] None of the DCA compounds has any effect on the lactate levels in MSC cells (FIG. 5A).
PC3, LNCaP, and MSC cells were seeded at a density of 1×10^6 cells/mL on each well of a 12 well plate and allowed to grow overnight at 37° C. under 5% CO2. Cells were treated with 150 μM Na-DCA, 150 μM TPP-DCA, and 50 μM MITO-DCA for 6 h at 37° C. After 6 h, the media was removed and the cells were homogenized. The lysate was added to the enzyme and substrate working reagent mixture and incubated for 30 min. Lactate concentration was measured using Bio-Tek Synergy HT microplate reader at 450 nm and comparing to a standard curve.

[1] = test system: mouse bone marrow derived dendritic cells (BMDCs); test: Cytokine secretion of BMDCs activated with supernatants of treated PC3 cells (ELISA); format: cell-based; conditions: for IL-12 secretion from BMDCs: BMDCs 24 h
Text: Cancer cells recruit several pathways to evade elimination by the immune system (Kim et al., Immunology 121:1-14, 2007). Several mechanisms by which tumor cells escape immunity include upregulation of inhibitory molecules, production of immunosuppressive cytokines, and downregulation of costimulatory molecules (Rabinovich et al., Annu. Rev. Immunol. 25:267-296, 2007). Dendritic cells (DCs), the major players for the initiation of a specific anti-tumor T-cell response, are potential target to tumor-mediated immunosuppression. (Gabrilovich et al., Nat. Med. 2:1096-1103, 1996; Radmayr et al., Int. J. Cancer 63:627-632, 1995; Orsini et al., Cancer Res. 63:4497-4506, 2003.) Lactic acid secretion in highly proliferative glycolytic tumor has the ability to induce alteration in antigen phenotype and functional activity of DCs, which contributes to the suppression of local immunity (Gottfried et al. 2006). Tumor derived lactic acid inhibit the differentiation of monocytes to DCs, impair DC activation and antigen expression and suppress the proliferation, cytokine production and cytotoxic activity of T cells (Fischer et al., Blood 109:3812-3819, 2007). After observing significant and very selective reduction in lactate levels in PCa cells by MITO-DCA, the impact of the reduced lactate producing PC3 cell supernatants on DCs was investigated. Cancer cell supernatants were generated by treating PC3 cells with MITO-DCA (50 μM), Na-DCA (150 μM), and TPP-DCA (150 μM) for 24 h. First, investigated was the immune responses from the PC3 supernatants upon treatment with different DCA compounds by determining pro-inflammatory and anti-inflammatory cytokines interleukin (IL)-2, IL-4, IL-6, IL-10, IL-12, tumor necrosis factor (TNF)-α, and interferon-gamma (IFN-γ) using enzyme-linked immunosorbent assay (ELISA) (FIG. 6A) (Marrache et al., Integr. Biol. 5:215-223, 2013). […] The levels of all these three cytokines were higher for MITO-DCA treated cells compared to those, which were treated with TPP-DCA or Na-DCA. When DCs are activated appropriately, they take up tumor antigens and apoptotic bodies, migrate to the T-cell-rich area of the lymph nodes, initiate a series of actions for the selection of antigen-specific T cells, and the release of the DC cytokines such as IFN-γ and IL-12. The PC3 supernatants containing the tumor antigens were added to mouse bone marrow derived dendritic cells (BMDCs) and incubated at 37° C. (Marrache et al., 2013). […]
BMDCs were isolated from 6-8 weeks old C57BL/6 mice. […] The cells were counted, resuspended and transferred to petri dishes at the final concentration of 1.5×10^6 cells/mL. […] DC purity was tested by incubating BMDCs with LPS (100 ng/mL) and measured the surface expression of CD11c. […]

[2] = supernatant of PC3 cells treated with 50 μM for 24 h

Compound	Reduction of intracellular lactate levels (PC3 cells; 50 μM) [%]	IL-10 production from BMDCs [1, 2]	TNF-α secretion from BMDCs [1, 2]	IL-12 secretion from BMDCs [1, 2]	Reduction of intracellular lactate levels (PC3 cells; 150 μM) [%]	IL-12 secretion from BMDCs ([1]; supernatant of PC3 cells treated with 150 μM for 24 h)
O=C(CCCCC[P+](c1ccccc1)(c1ccccc1)c1ccccc1)NC(COC(=O)C(Cl)Cl)(COC(=O)C(Cl)Cl)COC(=O)C(Cl)Cl.[Br-] [MITO-DCA]	58±5	reducing IL-10 production	highest level	significant increased secretion of IL-12	–	–
O=C(OCCC[P+](c1ccccc1)(c1ccccc1)c1ccccc1)C(Cl)Cl.[Br-] [TPP-DCA]	–	–	–	–	30±2	lesser compared to MITO-DCA
